Assay results from US20170369492A1 (Takeda Pharmaceutical Company Limited, priority 2014, published 2017).

Molecular target: T1, human GPR43 (Homo sapiens, UniProt O15552)
T1 construct: expressed in transfected cells
T1 sequence (O15552 1-330): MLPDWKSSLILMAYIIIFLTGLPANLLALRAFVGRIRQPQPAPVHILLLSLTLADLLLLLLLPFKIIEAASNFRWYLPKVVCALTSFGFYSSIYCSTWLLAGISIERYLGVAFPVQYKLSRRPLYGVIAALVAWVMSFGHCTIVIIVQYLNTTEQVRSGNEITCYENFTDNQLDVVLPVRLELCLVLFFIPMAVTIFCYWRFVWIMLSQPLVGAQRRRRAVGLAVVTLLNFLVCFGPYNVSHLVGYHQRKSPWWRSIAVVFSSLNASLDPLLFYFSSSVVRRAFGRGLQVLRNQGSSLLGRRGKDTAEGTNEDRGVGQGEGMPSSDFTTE
Assay: Ca-Flux Functional Assay: Determination of Agonist/Positive Allosteric Modulator (PAM) Activity
Format: cell-based
Settings: CHO-K1 Gα16 cells stably expressing human GPR43; compound added in the presence of EC20 sodium acetate; intracellular Ca2+ by FLIPR; agonist/PAM activity not distinguished
Experimental: Ca-Flux Functional Assay: Determination of Agonist/Positive Allosteric Modulator (PAM) Activity
GPR43 agonist/PAM activity was determined by measuring changes in intracellular calcium levels using a Ca^2+ sensitive fluorescent dye. The changes in fluorescent signal were monitored by FLIPR (manufactured by Molecular Devices). GPR43 mediated increases in intracellular Ca^2+ concentration were readily detected upon activation with sodium acetate. Prior to the assay (24 hours), CHO-K1 Gα16 cells stably expressing human GPR43 were-seeded in cell culture medium in black, clear-bottom 384-well plates (Corning Inc) and grown overnight at 37° C., 5% CO2. On the day of the assay, cell culture media was removed and cells were loaded with Calcium 5 Dye (Molecular Devices) diluted in HBSS containing 25 mM HEPES, 2.5 mM Probenecid, 0.1% BSA for 1 hour at 37° C., 5% CO2. 10 point half log concentration response curves of sodium acetate from 10 mM were conducted prior to the testing of compounds to calculate the sodium acetate concentration that produces 20% of the maximal response (EC20). Test compounds (at to point half log concentration response curves from 10 μM) were added in the presence of sodium acetate to achieve a final concentration that produces approximately 20% maximal response as calculated from the previous experiment. The changes in fluorescent signal were monitored by FLIPR upon addition of the compound/EC20 sodium acetate mix. The EC50 values were determined from ten point concentration response curves. Curves were generated using the average of two wells for each data point.
The above assay detects both GPR43 receptor agonists and positive allosteric modulators of the GPR43 receptor, without distinguishing between the two. Activity in either regard is useful in the treatment of conditions associated with GPR43 receptor activity.

Row | Compound | EC50 [nM]
1 | CCOc1ncnc2c(S(=O)(=O)c3ccccc3)c(N)n(C3CCC(F)(F)CC3)c12 [Example 29, 7-(benzenesulfonyl)-5-(4,4-difluorocyclohexyl)-4-ethoxy-5H-pyrrolo[3,2-d]pyrimidin-6-amine] | 31
2 | Nc1c(S(=O)(=O)N2CCSCC2)c2nccnc2n1C1CCCCC1 [Example 78, 5-cyclohexyl-7-(thiomorpholine-4-sulfonyl)-5H-pyrrolo[2,3-b]pyrazin-6-amine] | 337
3 | Nc1c(S(=O)(=O)c2ccc(OC(F)(F)F)cc2)c2nccnc2n1C1CCCCC1 [Example 116, 5-cyclohexyl-7-{[4-(trifluoromethoxy)-benzene]sulfonyl}-5H-pyrrolo[2,3-b]pyrazin-6-amine] | 1080
4 | Nc1c(S(=O)(=O)c2ccccc2)c2nccnc2n1[C@@H]1C[C@H]2CC[C@@H]1C2 (relative stereo) [Example 53, 5-((1R*,2R*,4S*)-bicyclo[2.2.1]heptan-2-yl)-7-(phenylsulfonyl)-5H-pyrrolo[2,3-b)pyrazin-6-amine] | 275
5 | Cc1ccc(S(=O)(=O)c2c(N)n(C3CCCCC3)c3nccnc23)cc1 [Example 3] | 122
6 | Nc1c(S(=O)(=O)NCCc2nccs2)c2nccnc2n1C1CCCCC1 [Example 103, 6-amino-5-cyclohexyl-N-[2-(1,3-thiazol-2-yl)ethyl]-5H-pyrrolo[2,3-b]pyrazine-7-sulfonamide] | 471
7 | N#Cc1ccc(S(=O)(=O)c2c(N)n(C3CCCCC3)c3nccnc23)cc1 [Example 113, 4-{6-amino-5-cyclohexyl-5H-pyrrolo[2,3-b]pyrazine-7-sulfonyl}benzonitrile] | 486
8 | Nc1c(S(=O)(=O)NCC2CCCO2)c2nccnc2n1C1CCCCC1 (stereo not drawn) [Example 96, 6-amino-5-cyclohexyl-N-(oxolan-2-ylmethyl)-5H-pyrrolo[2,3-b]pyrazine-7-sulfonamide] | 1950
9 | Cc1ccc(S(=O)(=O)c2c(N)n(C3CCCCCC3)c3nccnc23)cc1 [Example 2, 5-cycloheptyl-7-[(4-methylbenzene)sulfonyl]-5H-pyrrolo[2,3-b]pyrazin-6-amine] | 218
10 | CC1CCCN(S(=O)(=O)c2c(N)n(C3CCCCC3)c3nccnc23)C1 (stereo not drawn) [Example 102, 5-cyclohexyl-7-(3-methylpiperidine-1-sulfonyl)-5H-pyrrolo[2,3-b]pyrazin-6-amine] | 258
11 | Nc1c(S(=O)(=O)c2ccccc2)c2cccnc2n1C1CCCCC1 [Example 15, 3-(benzenesulfonyl)-1-cyclohexyl-1H-pyrrolo[2,3-b]pyridin-2-amine] | 381
12 | Nc1c(S(=O)(=O)c2cccs2)c2nccnc2n1C1CCCCC1 [Example 8, 5-cyclohexyl-7-(thiophene-2-sulfonyl)-5H-pyrrolo[2,3-b]pyrazin-6-amine] | 118
13 | Nc1c(S(=O)(=O)N2CCC(O)CC2)c2nccnc2n1C1CCCCC1 [Example 93, 1-{6-amino-5-cyclohexyl-5H-pyrrolo[2,3-b]pyrazine-7-sulfonyl}piperidin-4-ol] | 5700
14 | Nc1c(S(=O)(=O)c2ccccc2)c2nccnc2n1C1CCC1 [Example 43, 5-cyclobutyl-7-(phenylsulfonyl)-5H-pyrrolo[2,3-b]pyrazin-6-amine] | 6990
15 | Nc1c(S(=O)(=O)N2CCC(c3ccccc3)C2)c2nccnc2n1C1CCCCC1 (stereo not drawn) [Example 86, 5-cyclohexyl-7-(3-phenylpyrrolidine-1-sulfonyl)-5H-pyrrolo[2,3-b]pyrazin-6-amine] | 1720
16 | COc1ncnc2c(S(=O)(=O)c3ccccc3)c(N)n(C3CCCCC3)c12 [Example 26, 7-(benzenesulfonyl)-5-cyclohexyl-4-methoxy-5H-pyrrolo[3,2-d]pyrimidin-6-amine] | 79
17 | COc1nc(C)nc2c(S(=O)(=O)c3ccccc3F)c(N)n(C3CCCCC3)c12 [Example 38, 5-cyclohexyl-7-(2-fluorobenzenesulfonyl)-4-methoxy-2-methyl-5H-pyrrolo[3,2-d]pyrimidin-6-amine] | 169
18 | CCCCn1c(N)c(S(=O)(=O)c2ccccc2)c2nccnc21 [Example 45, 5-butyl-7-5(phenylsulfonyl)-5H-pyrrolo[2,3-b]pyrazin-6-amine] | 2890

Row | Compound | EC50 [nM]
19 | Nc1c(S(=O)(=O)Nc2ccccc2)c2nccnc2n1C1CCCCC1 [Example 41, 6-amino-5-cyclohexyl-N-phenyl-5H-pyrrolo[2,3-b]pyrazine-7-sulfonamide] | 585
20 | CC(C)(C)CCn1c(N)c(S(=O)(=O)c2ccccc2)c2nccnc21 [Example 52, 5-(3,3-dimethylbutyl)-7-(phenylsulfonyl)-5H-pyrrolo[2,3-b]pyrazin-6-amine] | 822
21 | COCCNS(=O)(=O)c1c(N)n(C2CCCCC2)c2nccnc12 [Example 90, 6-amino-5-cyclohexyl-N-(2-methoxyethyl)-5H-pyrrolo[2,3-b]pyrazine-7-sulfonamide] | 6180
22 | Cc1ccc(S(=O)(=O)c2c(N)n(C3CCCC3)c3cccnc23)cc1 [Example 10, 1-cyclopentyl-3-[(4-methylbenzene)sulfonyl]-1H-pyrrolo[3,2-b]pyridin-2-amine] | 2300
23 | Nc1c(S(=O)(=O)N2CCCCCC2)c2nccnc2n1C1CCCCC1 [Example 77, 7-(azepane-1-sulfonyl)-5-cyclohexyl-5H-pyrrolo[2,3-b]pyrazin-6-amine] | 290
24 | Nc1c(S(=O)(=O)c2ccc3c(c2)OCCO3)c2nccnc2n1C1CCCCC1 [Example 117, 5-cyclohexyl-7-(2,3-dihydro-1,4-benzodioxine-6-sulfonyl)-5H-pyrrolo[2,3-b]pyrazin-6-amine] | 124
25 | Nc1c(S(=O)(=O)c2ccccc2)c2nccnc2n1CCc1ccccc1 [Example 46, 5-phenethyl-7-(phenylsulfonyl)-5H-pyrrolo[2,3-b]pyrazin-6-amine] | 5260
26 | Nc1c(S(=O)(=O)N2C3CCC2CC(O)C3)c2nccnc2n1C1CCCCC1 (stereo not drawn) [Example 104, 8-{6-amino-5-cyclohexyl-5H-pyrrolo[2,3-b]pyrazine-7-sulfonyl}-8-azabicyclo[3.2.1]octan-3-ol] | 3080
27 | Nc1c(S(=O)(=O)N2CCc3ccccc3C2)c2nccnc2n1C1CCCCC1 [Example 94, 5-cyclohexyl-7-(1,2,3,4-tetrahydroisoquinoline-2-sulfonyl)-5H-pyrrolo[2,3-b]pyrazin-6-amine] | 308
28 | Nc1c(S(=O)(=O)c2ccc(Cl)cc2)c2nccnc2n1C1CCCCC1 [Example 5, 7-[(4-chlorobenzene)sulfonyl]-5-cyclohexyl-5H-pyrrolo[2,3-b]pyrazin-6-amine] | 195
29 | CC1CCN(S(=O)(=O)c2c(N)n(C3CCCCC3)c3nccnc23)CC1 [Example 62, 5-cyclohexyl-7-((4-methylpiperidin-1-yl)sulfonyl)-5H-pyrrolo[2,3-b]pyrazin-6-amine] | 303
30 | COc1nccc2c(S(=O)(=O)c3ccccc3)c(N)n(C3CCCCC3)c12 [Example 36, 3-(benzenesulfonyl)-1-cyclohexyl-7-methoxy-1-pyrrolo[2,3-c]pyridin-2-amine] | 245
31 | COC1CCN(S(=O)(=O)c2c(N)n(C3CCCCC3)c3nccnc23)CC1 [Example 73, 5-cyclohexyl-7-(4-methoxypiperidine-1-sulfonyl)-5H-pyrrolo[2,3-b]pyrazin-6-amine] | 488
32 | CC1CN(S(=O)(=O)c2c(N)n(C3CCCCC3)c3nccnc23)CC(C)O1 (mixture of isomers) [Example 76, 5-cyclohexyl-7-(2,6-dimethylmorpholine-4-sulfonyl)-5H-pyrrolo[2,3-b]pyrazin-6-amine] | 1530
33 | CC1CCCCC1n1c(N)c(S(=O)(=O)c2ccccc2)c2nccnc21 (mixture of isomers) [Example 44, 5-(2-methylcyclohexyl)-7-(phenylsulfonyl)-5H-pyrrolo[2,3-b]pyrazin-6-amine] | 1080
34 | CC1CCCN1S(=O)(=O)c1c(N)n(C2CCCCC2)c2nccnc12 (stereo not drawn) [Example 68, 5-cyclohexyl-7-((2-methylpyrrolidin-1-yl)sulfonyl)-5H-pyrrolo[2,3-b]pyrazin-6-amine] | 1470
35 | Nc1c(S(=O)(=O)c2ccccc2)c2ncnc(OCc3ccccc3)c2n1C1CCC(F)(F)CC1 [Example 30, 7-(benzenesulfonyl)-4-(benzyloxy)-5-(4,4-difluorocyclohexyl)-5H-pyrrolo[3,2-d]pyrimidin-6-amine] | 199
36 | CCC1(Cn2c(N)c(S(=O)(=O)c3ccccc3)c3nccnc32)CC1 [Example 55, 5-((1-ethylcyclopropyl)-methyl)-7-(phenylsulfonyl)-5H-pyrrolo[2,3-b]pyrazin-6-amine] | 7170
